Source: patent US7750013B2, “N-oxides as prodrugs of piperazine and piperidine derivatives” (Solvay Pharmaceuticals, B.V., priority 2005, dated 2010)

Columns and labels:
5-HT7 = 5-HT7 (Homo sapiens, UniProt P34969); experiment: In vitro receptor affinity, 5-HT7; type: binding
Protocol: (§1) The binding data collected in the table below (Example 5: pharmacological test results) were either obtained by CEREP (128, rue Danton, 92500 Rueil-Malmaison, France) or at Solvay Pharmaceuticals B.V. (C. J. van Houtenlaan 36, 1381 CP Weesp, The Netherlands), using well documented standard procedures. The affinities for dopamine-D2 and 5-HT1A receptors for instance, was measured as described by Creese I, Schneider R and Snyder S H, [^3H]-Spiroperidol labels dopamine receptors in rat pituitary and brain, Eur J Pharmacol […], 46: 377-381 and Gozlan H, El Mestikawy S, Pichat L, Glowinsky J and Hamon M, 1983, Identification of presynaptic serotonin autoreceptors using a new ligand ^3H-PAT, Nature 1983, 305: 140-142.

Dopamine-D2 = Dopamine-D2 (Homo sapiens, UniProt P14416); experiment: In vitro receptor affinity, Dopamine-D2; type: binding
Protocol: as §1

Dopamine-D5 = Dopamine-D5 (Homo sapiens, UniProt P21918); experiment: In vitro receptor affinity, Dopamine-D5; type: binding
Protocol: as §1

α1B-adrenergic = α1B-adrenergic (Rattus norvegicus, UniProt P15823); experiment: In vitro receptor affinity, α1B-adrenergic; type: binding
Protocol: as §1

α2-adrenergic = experiment: In vitro receptor affinity, α2-adrenergic; type: binding; conditions: rat; radioligand [3H]-RX 821002
Protocol: as §1

[1] = system: receptors for which the parent compound showed a high affinity; experiment: In vitro screening of the N-oxide metabolite (receptor affinity overall); type: binding; conditions: affinity very low or below the detection limit
From the text: In drug development, metabolites are routinely investigated for activity, toxicity, etc. […] These findings confirmed that in this case one of the most common situations with an N-oxide had occurred: metabolic deactivation.
as §1

Dopamine-D1 = Dopamine-D1 (Homo sapiens, UniProt P21728); experiment: In vitro receptor affinity, Dopamine-D1; type: binding
Protocol: as §1

5-HT2C = 5-HT2C (Homo sapiens, UniProt P28335); experiment: In vitro receptor affinity, 5-HT2C; type: binding
Protocol: as §1

5-HT1D = experiment: In vitro receptor affinity, 5-HT1D; type: binding; conditions: bovine; radioligand [3H]-serotonin
Protocol: as §1

α1-adrenergic = experiment: In vitro receptor affinity, α1-adrenergic; type: binding; conditions: rat; radioligand [3H]-prazosin
Protocol: as §1

[2] = Plasma levels of SLV308 and its N-oxide after oral dosing; type: in vivo; conditions: after oral administration; rats
From the text: These findings were corroborated by measurements of plasma levels of SLV308 and its N-oxide after oral dosing with SLV308 and the N-oxide.

5-HT1B = 5-HT1B (Rattus norvegicus, UniProt P28564); experiment: In vitro receptor affinity, 5-HT1B; type: binding
Protocol: as §1

Sequence of Dopamine-D2 (P14416 whole entry): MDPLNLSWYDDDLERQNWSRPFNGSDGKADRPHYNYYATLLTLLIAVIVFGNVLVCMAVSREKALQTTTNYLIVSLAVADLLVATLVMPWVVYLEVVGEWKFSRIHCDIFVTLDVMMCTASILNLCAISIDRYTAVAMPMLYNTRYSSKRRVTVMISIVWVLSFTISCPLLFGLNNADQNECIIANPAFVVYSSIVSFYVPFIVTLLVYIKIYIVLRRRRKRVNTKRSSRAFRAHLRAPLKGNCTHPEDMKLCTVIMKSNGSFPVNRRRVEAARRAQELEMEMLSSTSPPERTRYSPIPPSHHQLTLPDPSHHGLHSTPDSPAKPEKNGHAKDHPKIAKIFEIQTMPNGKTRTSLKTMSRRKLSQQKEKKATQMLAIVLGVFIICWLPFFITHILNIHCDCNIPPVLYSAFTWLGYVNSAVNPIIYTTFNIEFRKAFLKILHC
Sequence of 5-HT2C (P28335 33-458): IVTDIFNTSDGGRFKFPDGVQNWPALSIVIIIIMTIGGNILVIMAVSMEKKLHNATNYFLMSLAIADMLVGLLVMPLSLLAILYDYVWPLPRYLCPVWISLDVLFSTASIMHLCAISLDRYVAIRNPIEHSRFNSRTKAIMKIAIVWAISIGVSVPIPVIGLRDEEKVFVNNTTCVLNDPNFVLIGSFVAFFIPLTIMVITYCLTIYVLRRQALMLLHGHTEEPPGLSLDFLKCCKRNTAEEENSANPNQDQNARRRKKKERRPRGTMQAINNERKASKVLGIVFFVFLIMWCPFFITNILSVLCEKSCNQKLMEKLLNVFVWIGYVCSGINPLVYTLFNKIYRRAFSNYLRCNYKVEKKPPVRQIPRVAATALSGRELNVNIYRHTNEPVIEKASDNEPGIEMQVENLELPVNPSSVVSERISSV
Sequence of 5-HT7 (P34969 whole entry): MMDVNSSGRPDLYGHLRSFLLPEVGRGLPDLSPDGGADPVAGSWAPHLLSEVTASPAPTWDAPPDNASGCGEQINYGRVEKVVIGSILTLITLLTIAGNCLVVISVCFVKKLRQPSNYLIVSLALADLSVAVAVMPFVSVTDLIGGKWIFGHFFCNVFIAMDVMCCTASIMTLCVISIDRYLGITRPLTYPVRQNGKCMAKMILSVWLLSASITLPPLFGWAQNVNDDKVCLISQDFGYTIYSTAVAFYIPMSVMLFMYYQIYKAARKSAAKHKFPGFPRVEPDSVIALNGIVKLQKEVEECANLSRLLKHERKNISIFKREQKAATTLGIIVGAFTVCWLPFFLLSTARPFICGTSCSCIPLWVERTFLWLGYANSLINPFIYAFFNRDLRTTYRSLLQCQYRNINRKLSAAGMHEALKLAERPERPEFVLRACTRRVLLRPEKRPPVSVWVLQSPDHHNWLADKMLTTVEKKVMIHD
Sequence of Dopamine-D5 (P21918 whole entry): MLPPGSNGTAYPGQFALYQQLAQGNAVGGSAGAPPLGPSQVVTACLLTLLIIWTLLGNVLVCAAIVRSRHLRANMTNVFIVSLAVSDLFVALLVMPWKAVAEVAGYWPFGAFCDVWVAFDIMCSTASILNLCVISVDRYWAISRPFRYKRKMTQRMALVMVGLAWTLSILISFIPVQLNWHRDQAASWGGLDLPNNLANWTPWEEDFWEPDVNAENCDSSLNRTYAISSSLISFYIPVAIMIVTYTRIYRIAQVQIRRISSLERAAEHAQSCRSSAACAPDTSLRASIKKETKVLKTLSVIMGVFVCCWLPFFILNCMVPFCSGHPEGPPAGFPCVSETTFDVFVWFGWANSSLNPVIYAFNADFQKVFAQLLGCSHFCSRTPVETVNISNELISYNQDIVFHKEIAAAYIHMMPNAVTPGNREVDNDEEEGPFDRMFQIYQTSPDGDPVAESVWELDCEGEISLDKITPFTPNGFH
Sequence of Dopamine-D1 (P21728 whole entry): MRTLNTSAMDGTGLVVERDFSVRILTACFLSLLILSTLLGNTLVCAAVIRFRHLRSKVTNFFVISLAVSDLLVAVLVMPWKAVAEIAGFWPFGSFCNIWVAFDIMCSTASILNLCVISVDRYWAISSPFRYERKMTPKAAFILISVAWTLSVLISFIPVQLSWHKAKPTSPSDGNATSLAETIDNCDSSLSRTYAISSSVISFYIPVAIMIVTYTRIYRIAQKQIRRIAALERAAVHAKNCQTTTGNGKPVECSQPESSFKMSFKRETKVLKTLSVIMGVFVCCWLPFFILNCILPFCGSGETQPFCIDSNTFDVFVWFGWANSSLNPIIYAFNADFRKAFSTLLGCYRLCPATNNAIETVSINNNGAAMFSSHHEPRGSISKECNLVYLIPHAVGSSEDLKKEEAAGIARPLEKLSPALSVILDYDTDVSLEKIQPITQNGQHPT
Sequence of α1B-adrenergic (P15823 whole entry): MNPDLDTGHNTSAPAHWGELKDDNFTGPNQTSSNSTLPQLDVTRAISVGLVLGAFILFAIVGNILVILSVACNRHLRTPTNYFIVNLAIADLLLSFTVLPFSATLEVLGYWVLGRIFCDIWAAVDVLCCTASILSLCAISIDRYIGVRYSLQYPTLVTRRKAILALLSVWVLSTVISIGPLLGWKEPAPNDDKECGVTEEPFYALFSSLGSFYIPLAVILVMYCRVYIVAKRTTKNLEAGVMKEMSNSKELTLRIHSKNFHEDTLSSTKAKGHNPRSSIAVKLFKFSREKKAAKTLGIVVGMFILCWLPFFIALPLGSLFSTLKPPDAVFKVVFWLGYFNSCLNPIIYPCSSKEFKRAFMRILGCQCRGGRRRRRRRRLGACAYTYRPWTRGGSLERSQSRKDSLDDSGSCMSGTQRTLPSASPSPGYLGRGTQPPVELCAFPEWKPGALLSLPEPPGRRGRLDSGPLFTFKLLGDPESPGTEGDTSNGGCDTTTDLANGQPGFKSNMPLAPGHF
Sequence of 5-HT1B (P28564 whole entry): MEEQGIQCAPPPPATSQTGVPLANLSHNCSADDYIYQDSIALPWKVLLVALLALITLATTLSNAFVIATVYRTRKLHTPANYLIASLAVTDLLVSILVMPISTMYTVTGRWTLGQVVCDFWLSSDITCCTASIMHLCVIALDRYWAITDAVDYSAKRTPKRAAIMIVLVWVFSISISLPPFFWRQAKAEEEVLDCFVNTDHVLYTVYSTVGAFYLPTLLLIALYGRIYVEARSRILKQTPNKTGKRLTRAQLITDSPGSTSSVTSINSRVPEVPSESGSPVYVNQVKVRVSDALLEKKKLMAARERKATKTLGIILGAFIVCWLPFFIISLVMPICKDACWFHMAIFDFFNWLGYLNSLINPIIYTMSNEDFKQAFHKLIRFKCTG

## C[N+]1([O-])CCN(c2cccc3[nH]c(=O)oc23)CC1 [N-oxide of SLV308, N-Oxide of SLV308]
5-HT7
  Ki: > 1000 nM
Dopamine-D2
  Ki: > 1000 nM
Dopamine-D2; potency ratio
  Factor by which dopamine-D2 receptor affinities differ (N-oxide vs SLV308): ≥ 100
Dopamine-D5
  Ki: > 1000 nM
α1B-adrenergic
  Ki: 400 nM
α2-adrenergic
  Ki: 500 nM
[1]
  In vitro activity (in words): virtually inactive
Dopamine-D1
  Ki: > 1000 nM
5-HT2C
  Ki: > 1000 nM
5-HT1D
  Ki: > 1000 nM
α1-adrenergic
  Ki: > 1000 nM
[2]
  Plasma levels of the N-oxide relative to SLV308 (in words): approximately equal
5-HT1B
  Ki: > 1000 nM
